Tested on: transcript levels in tissues (GH/IGF and glucagon/insulin axes, SSTR signalling)
Type: in vivo, cynomolgus monkeys
[1] = RNA expression fold change, pituitary

cyclo[4-(NH2—C2H4—NH—CO—O)Pro-Phg-DTrp-Lys-Tyr(4-Bzl)-Phe] [SOM230]
Core-binding factor, runt domain, α subunit 2; translocated to, 1; cyclin D-related ↑ [1]: D-related ↑ x3 | Cyclin D3 ↑ [1]: Cyclin D3 ↑ x2.5 | Cyclin F ↓ [1]: Cyclin F ↓ x2 | Dual specificity phosphatase 8 ↓ [1]: phosphatase 8 ↓ x3 | EGFRBP 2 ↓ [1]: EGFRBP 2 ↓ x1.5 | FGFR 2 ↓ [1]: FGFR 2 ↓ x2 | Fms-related tyrosine kinase 1 (VEGF/vascular permeability factor receptor) ↓ [1]: receptor) ↓ x1.5 | Forkhead box H1 ↑ [1]: Forkhead box H1↑ x2 | Forkhead box O3A ↓ [1]: ↓ x1.5 | G protein-coupled receptor, family C, group 5, member B ↑ [1]: 5, member B ↑ x2 | G-protein coupled receptor 9 ↑ [1]: receptor 9 ↑ x2.5 | G-protein coupled receptor 49 ↓ [1]: receptor 49 ↓ x2 | GABA-B R 1, isoform a precursor ↑ [1]: ↑ x1.5 | GFR bound protein 10 ↑ [1]: ↑ x1.5 | GLUR 2, precursor ↑ [1]: x1.5 | GTP-binding protein 11 ↑ [1]: ↑ x2.5 | GTP-binding protein (G protein), q polypeptide ↓ [1]: ↓ x2.5 | GTP-binding protein like-1 ↓ [1]: like-1 ↓ x3 | Gastrin receptor ↓ [1]: Gastrin receptor ↓ x2 | Glucagon receptor ↑ [1]: Glucagon receptor ↑ x7 | IFN stimulated gene ↑ [1]: ↑ x3.5 | IFNR2 (α, β and ω) ↓ [1]: ↓ x2.5 | IFNγ-inducible protein 30 (IP30) ↑ [1]: 30 (IP30) ↑ x1.5 | IGF-2 ↓ [1]: IGF-2 ↓ x1.5 | IGFBP, acid labile subunit ↑ [1]: subunit ↑ x3.5 | IP3 receptor, type 1 ↑ [1]: ↑ x1.5 | IP-4-phosphatase, type 1, isoform b ↓ [1]: 1, isoform b ↓ x2 | JAK 1 ↑ [1]: JAK 1 ↑ x2 | K+ channel, subfamily K, member 3 (TASK) ↓ [1]: ↓ x4 | K+ voltage-gated channel, Shab-related subfamily, member 1 ↓ [1]: subfamily, member 1 ↓ x2 | MAPKKK5 ↑ [1]: MAPKKK5 ↑ x2 | Neuroblastoma-amplified protein ↑ [1]: ↑ x1.5 | PDGFβ ↓ [1]: PDGFβ ↓ x2 | PI transfer protein, β ↓ [1]: ↓ x2.5 | PI-3-kinase, catalytic, α polypeptide ↓ [1]: polypeptide ↓ x3 | PI-3-kinase, catalytic, δ polypeptide ↓ [1]: ↓ x2 | PKC inhibitor ↑ [1]: PKC inhibitor ↑ x2 | PLCγ 1 ↓ [1]: PLCγ 1 ↓ x1.5 | PP 1, regulatory (inhibitor) subunit 5 ↑ [1]: ↑ x3.5 | PTP, receptor type, T ↑ [1]: ↑ x2 | Phosphatase and tensin homolog (mutated in multiple advanced cancers 1) ↓ [1]: 1) ↓ x3.5 | Programmed cell death 6 ↑ [1]: ↑ x1.5 | Putative Ca++ transporting ATPase ↑ [1]: transporting ATPase ↑ x2 | RAB 5C, member RAS oncogene family ↑ [1]: oncogene family ↑ x3 | Rab3 GTPase-activating protein, non catalytic subunit ↓ [1]: subunit ↓ x2 | Rab geranylgeranyltransferase, α subunit ↓ [1]: α subunit ↓ x1.5 | Rab geranyltransferase, β subunit ↑ [1]: β subunit ↑ x2 | Receptor (calcitonin) activity modifying protein 2 precursor ↑ [1]: 2 precursor ↑ x3.5 | Receptor tyrosine kinase-like orphan receptor 2 ↑ [1]: receptor 2 ↑ x2 | Regulator of G-protein signalling 9 ↑ [1]: ↑ x2 | S-phase response (cyclin-related) ↑ [1]: (cyclin-related) ↑ x2 | SHB adaptor protein (a Src homology 2 protein) ↓ [1]: ↓ x2.5 | SSTR3 ↑ [1]: SSTR3 ↑ x3 | STAT 1, 91kδ ↓ [1]: STAT 1, 91kδ ↓ x2 | Soluble adenylyl cyclase ↓ [1]: ↓ x2 | TNFR subfamily, member 14; herpesvirus entry mediator ↓ [1]: entry mediator ↓ x2.5 | TNFR-associated factor 2 ↓ [1]: 2 ↓ x4 | Thrombospondin-p50 ↓ [1]: ↓ x2 | Thyroid transcription factor 1 ↑ [1]: factor 1 ↑ x2.5 | VEGF B ↑ [1]: VEGF B ↑ x1.5 | Extra spindle poles, S. cerevisiae, homolog of ↓ (cynomolgus monkey, in vivo): ↓ x2.5 | Acetylserotonin O-methyl transferase-like expression ↓ (fold change) (kidney): transferase-like ↓ x3 | Adrenomedullin expression ↑ (fold change) (kidney): x1.5 | Angiotensin receptor 1B expression ↓ (fold change) (kidney): 1B ↓ x1.5 | Arginine vasopressin (neurophysin II, antidiuretic hormone, diabete insipidus, neurohypophyseal) expression ↑ (fold change) (kidney): ↑ x2 | CDC37 (cell division cycle 37, S. cerevisiae, homolog) expression ↑ (fold change) (kidney): homolog) ↑ x1.5 | CSF-1 receptor, formerly Mc Donough feline sarcoma viral (v-fms) oncogene homolog expression ↑ (fold change) (kidney): homolog ↑ x2.5 | Ca++ channel, voltage-dependent, α 1H subunit expression ↑ (fold change) (kidney): α 1H subunit ↑ x2 | Calcium/calmodulin-dependent protein kinase kinase 2, β expression ↑ (fold change) (kidney): ↑ x1.5 | Calmodulin 3 (phosphorylase kinase, δ) expression ↓ (fold change) (kidney): kinase, δ) ↓ x1.5 | Cdk 5, regulatory subunit 2 (p39) expression ↑ (fold change) (kidney): ↑ x1.5 | Cdki 1A (p21, Cip 1) expression ↑ (fold change) (kidney): Cip 1) ↑ x5 | Corticotropin releasing hormone receptor type 2 beta isoform expression ↑ (fold change) (kidney): isoform ↑ x1.5 | Death effector domain-containing expression ↓ (fold change) (kidney): ↓ x3.5 | Dopamine receptor D2 expression ↑ (fold change) (kidney): receptor D2 ↑ x4.5 | Fas/Apo-1/CD95 expression ↑ (fold change) (kidney): ↑ x1.5 | GABA (A) receptor, γ2 precursor expression ↑ (fold change) (kidney): precursor ↑ x2 | GFR-bound protein 7 expression ↑ (fold change) (kidney): protein 7 ↑ x2 | GFR-bound protein 14 expression ↑ (fold change) (kidney): protein 14 ↑ x2 | Gene expression (AvgDiff): IGF-1 (kidney): 25 | Gene expression (AvgDiff): IGF-2 (kidney): 49 | Gene expression (AvgDiff): IGFBP2 (kidney): 563 | Gene expression (AvgDiff): IR (kidney): 196 | Gene expression (AvgDiff): SSTR2 (kidney): 126 | Gene expression (AvgDiff): SSTR3 (kidney): 82 | Glucocorticoid receptor DNA binding factor 1 expression ↓ (fold change) (kidney): ↓ x4.5 | Glutamate receptor, metabotropic 2 precursor expression ↓ (fold change) (kidney): precursor ↓ x3 | Growth arrest-specific 6 expression ↑ (fold change) (kidney): specific 6 ↑ x1.5 | IGF-1 expression ↓ (fold change) (kidney): IGF-1 ↓ x2.5 | IGF-2 expression ↓ (fold change) (kidney): IGF-2 ↓ x2 | IGFBP2 expression ↑ (fold change) (kidney): IGFBP2 ↑ x1.5 | IL-7 R precursor expression ↑ (fold change) (kidney): ↑ x2 | IRF5 expression ↑ (fold change) (kidney): IRF5 ↑ x2 | Insulin receptor expression ↓ (fold change) (kidney): ↓ x3 | K+ voltage-gated channel, Shaw-related subfamily, member 3 expression ↑ (fold change) (kidney): member 3 ↑ x2.5 | LIF (cholinergic differentiation factor) expression ↑ (fold change) (kidney): factor) ↑ x2 | Na+ channel, nonvoltage-gated 1, β (Liddle syndrome) expression ↓ (fold change) (kidney): ↓ x2 | Natriuretic peptide receptor A/guanylate cyclase A (atrionatriuretic peptide receptor A) expression ↑ (fold change) (kidney): ↑ x2 | Opioid receptor, δ1 expression ↑ (fold change) (kidney): δ1 ↑ x2.5 | PDGFR, α polypeptide expression ↑ (fold change) (kidney): polypeptide ↑ x1.5 | PG-endoperoxide synthase 1 (prostaglandin G/H synthase and cyclooxygenase) expression ↓ (fold change) (kidney): x3.5 | PI-3-kinase, catalytic, α polypeptide expression ↓ (fold change) (kidney): polypeptide ↓ x3 | PP 3 (formerly 2B), catalytic subunit, β isoform (calcineurin A β) expression ↓ (fold change) (kidney): ↓ x2 | Putative chemokine receptor; GTP-binding protein expression ↑ (fold change) (kidney): ↑ x2 | SSTR2 expression ↑ (fold change) (kidney): SSTR 2↑ x2 | SSTR 3 expression ↑ (fold change) (kidney): SSTR 3↑ x3 | Solute carrier family 6 (neurotransmitter transporter, creatin), member 8 expression ↓ (fold change) (kidney): member 8 ↓ x3 | Solute carrier family 9 (Na+/H+ exchanger) isoform 3 regulatory factor 1 expression ↑ (fold change) (kidney): ↑ x2 | TGF, β1 expression ↑ (fold change) (kidney): TGF, β1 ↑ x1.5 | THR binding protein expression ↑ (fold change) (kidney): protein ↑x1.5 | THR, α (avian erythroblastic leukemia viral (v-erb-a) oncogene homolog) expression ↑ (fold change) (kidney): homolog) ↑x1.5 | THR-associated protein, 240kδ subunit expression ↓ (fold change) (kidney): subunit ↓ x1.5 | TNF, α-induced protein 3 expression ↓ (fold change) (kidney): ↓ x1.5 | TNFR superfamily, member 12 expression ↑ (fold change) (kidney): member 12 ↑ x2 | VWF precursor expression ↑ (fold change) (kidney): x2 | Vasopressin-activated calcium-mobilizing receptor-1 expression ↓ (fold change) (kidney): 1 ↓ x2 | δ sleep inducing peptide, immunoreactor expression ↑ (fold change) (kidney): x2.5 | 1-PI-4-phosphate 5-kinase isoform C expression ↓ (fold change) (liver): ↓ x2 | 5-hydroxytrypt amine (serotonine) receptor 6 expression ↑ (fold change) (liver): receptor 6 ↑ x2.5

Source: patent publication US20130040882A1, “USE OF FIBROBLAST GROWTH FACTOR FRAGMENTS” (NOVARTIS AG, priority 2003, published 2013)
